Values belong to the molecule of their own block, whether it stands above or below them.
Key:
[1] = Binding affinity to His8-tagged Lactococcus lactis ThiT expressed in Lactococcus lactis NZ9000 cells by intrinsic fluorescence titration assay; format: cell-based
[2] = Binding affinity to His8-tagged Lactococcus lactis ThiT expressed in Lactococcus lactis NZ9000 cells by isothermal […] analysis; format: cell-based
[3] = Binding affinity to Lactococcus lactis ThiT Gly129Ala mutant

Compound: Cc1c(Cc2cnc(C(C)C)nc2N)csc1CCO
- Kd [1]: 13.6 nM

Compound: Cc1c(Cc2cnc(C(F)(F)F)nc2N)csc1CCO
- Kd [1]: 8.48 nM

Compound: Cc1c(Cc2cncnc2N)csc1CCO
- Kd [1]: 1020 nM

Compound: Cc1c(Cc2cnc(N)nc2N)csc1CCO
- Kd [2]: 2920 nM

Compound: Cc1ncc(Cc2csc(CCO)c2C)c(N)n1 [3-DEAZATHIAMINE]
- Kd [1]: 4.23 nM

- Kd [3]: 33.9 nM
Compound: Cc1ncc(C[n+]2csc(CCO)c2C)c(N)n1 [THIAMINE]
- Kd [1]: 0.122 nM

Compound: CCc1ncc(Cc2csc(CCO)c2C)c(N)n1
- Kd [1]: 5.04 nM

Source: ChEMBL document CHEMBL3817821, “Design and synthesis of thiamine analogues to study their binding to the ECF transporter for thiamine in bacteria” (Medchemcomm, 2016)
